Reference: PMC7419507, “In vitro Cas9-assisted editing of modular polyketide synthase genes to produce desired natural product derivatives” (Nature Communications, 2020)
Where “and” joins values, the source holds several entries; their conditions need not be identical. Equal entries are not always repeated.

Target: T1, FKBP12 and mTOR (Homo sapiens, UniProt P42345+P62942)
T1 construct: host or cells: HeLa cells
Assay: Fluoppi analysis: induction of FKBP12-mTOR complex formation in transfected HeLa cells
Type: cell-based
Settings: for PPI-inducing (binding enhancing) activity between FKBP12 and mTOR compared with rapamycin (1), in words / EC50: Fluoppi; for EC50: HeLa cells, 1 h treatment, three independent biological replicates, read-out: EC50, induction of the formation of FKBP-mTOR complex; for Foci intensity: raw data, one replicate per line
Protocol: Fluoppi harbours a tetrameric fluorescent protein hAG tag and an oligomeric assembly helper Ash tag to create detectable fluorescent foci in cells when there are interactions between two proteins fused to each tag[32].
HeLa cells were maintained in DMEM (Fujifilm Wako, Osaka, Japan) supplemented with 10% FBS (Thermo Fisher Scientific, MA, USA) and 1% of Penicillin-Streptomycin (Thermo Fisher Scientific) in a humidified incubator with 5% CO2 at 37 °C. Harvested cells were plated at 1 × 10^6 cells/well in 6-well plate and incubated for 6 h. Then each 1.25 µg of phAG-mTOR and pAsh-FKBP12 (Medical and Biological Laboratories Co., Ltd., Aichi, Japan) was co-transfected with Lipofectamine 2000 reagent (Thermo Fisher Scientific) overnight. Next day, transfected cells were harvested and seeded in 384-well optical-bottom microplate (PerkinElmer, MA, USA) at a density of 3000 cells/well. After the 24 h incubation at 37 °C, cells were treated with different concentrations of compounds for 1 h. Cells were then fixed with 4% paraformaldehyde and stained with 1 µg/ml of Hoechst33342 (Thermo Fisher Scientific). Cell images of 9 visual fields/well were acquired with ×20 objective lens in Opera Phenix High-Content Screening System (PerkinElmer) and analysed by Harmony4.9 software (PerkinElmer). Because protein-protein interactions are quantified by measuring the aggregation of fluorescent elements in foci, fluorescent intensity in foci was normalised by total fluorescent intensity in each cell. EC50 values were calculated using TIBCO Spotfire 10.3 software (PerkinElmer).

T1 sequence (P42345 2025-2114 limits assumed): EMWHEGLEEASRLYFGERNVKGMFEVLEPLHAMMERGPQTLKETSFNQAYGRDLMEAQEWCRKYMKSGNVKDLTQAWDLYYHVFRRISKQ
T1 sequence (P62942 whole entry): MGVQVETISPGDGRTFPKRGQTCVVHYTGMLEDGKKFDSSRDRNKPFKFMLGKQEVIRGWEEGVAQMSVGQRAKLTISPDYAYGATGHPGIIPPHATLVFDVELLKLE

Row | Foci intensity (conc 9.53674e-5 uM) | Foci intensity (conc 0.000190735 uM) | Foci intensity (conc 0.00038147 uM) | Foci intensity (conc 0.000762939 uM) | Foci intensity (conc 0.00152588 uM) | Foci intensity (conc 0.00305176 uM) | Foci intensity (conc 0.00610352 uM) | Foci intensity (conc 0.012207 uM) | Foci intensity (conc 0.0244141 uM) | Foci intensity (conc 0.0488281 uM) | Foci intensity (conc 0.0976562 uM) | Foci intensity (conc 0.195312 uM) | Foci intensity (conc 0.390625 uM) | Foci intensity (conc 0.78125 uM) | Foci intensity (conc 1.5625 uM) | Foci intensity (conc 3.125 uM) | Foci intensity (conc 6.25 uM) | Foci intensity (conc 12.5 uM) | Foci intensity (conc 25 uM) | Foci intensity (conc 50 uM) | Compound | further results
1 | 0.02036 and 0.008593 and 0.006167 | 0.01432 and 0.008145 and 0.01977 | 0.01002 and 0.01191 and 0.006949 | 0.02361 and 0.0319 and 0.02031 | 0.02629 and 0.01654 and 0.01268 | 0.02214 and 0.02006 and 0.01134 | 0.03874 and 0.01998 and 0.01509 | 0.01596 and 0.01655 and 0.01094 | 0.04032 and 0.02924 and 0.04626 | 0.1206 and 0.1281 and 0.1053 | 0.3145 and 0.2601 and 0.1852 | 0.3854 and 0.3277 and 0.371 | 0.4069 and 0.3307 and 0.3864 | 0.4181 and 0.3809 and 0.3423 | 0.3991 and 0.3532 and 0.4458 | 0.3573 and 0.4306 and 0.409 | 0.3647 and 0.3805 and 0.3539 | 0.3743 and 0.3421 and 0.396 | 0.3317 and 0.3763 and 0.373 | 0.3749 and 0.3065 and 0.4374 | COC1CC2CCC(C)C(O)(O2)C(=O)C(=O)N2CCCCC2C(=O)OC(C(C)CC2CCC(O)C(OC)C2)CC(O)CC(=O)C(C)C=C(C)C(O)CC(=O)C(C)CC(C)C=CC=CC=C1C (stereo not drawn) [Compound 13] | PPI-inducing (binding enhancing) activity between FKBP12 and mTOR compared with rapamycin (1), in words: relatively weaker activities; EC50: 73 nM
2 | 0.02068 and 0.01364 and 0.008639 | 0.01744 and 0.007135 and 0.0155 | 0.04148 and 0.01907 and 0.0147 | 0.01977 and 0.01076 and 0.01197 | 0.06388 and 0.02909 and 0.00714 | 0.01847 and 0.0327 and 0.01128 | 0.01966 and 0.01473 and 0.01204 | 0.01622 and 0.03454 and 0.02495 | 0.05679 and 0.05606 and 0.04583 | 0.1221 and 0.237 and 0.2378 | 0.306 and 0.2748 and 0.2045 | 0.3211 and 0.3269 and 0.2723 | 0.3599 and 0.2761 and 0.3358 | 0.3175 and 0.3752 and 0.289 | 0.3697 and 0.3114 and 0.3338 | 0.3541 and 0.2997 and 0.3309 | 0.3255 and 0.2796 and 0.2953 | 0.3157 and 0.354 and 0.2564 | 0.3263 and 0.3214 and 0.3499 | 0.3058 and 0.2791 and 0.2528 | CO[C@H]1C[C@@H]2CC[C@@H](C)[C@@](O)(O2)C(=O)C(=O)N2CCCC[C@H]2C(=O)O[C@H]([C@H](C)C[C@@H]2CC[C@@H](O)[C@H](OC)C2)CC(=O)[C@H](C)/C=C(\C)[C@@H](O)CC(=O)[C@H](C)C[C@H](C)/C=C/C=C(C)/C=C/1C [Compound 2, 27-demethoxy-19-methyl rapamycin] | PPI-inducing (binding enhancing) activity between FKBP12 and mTOR compared with rapamycin (1), in words: relatively weaker activities; EC50: 45 nM
3 | 0.01546 and 0.009859 and 0.01479 | 0.02291 and 0.01436 and 0.01269 | 0.01763 and 0.009567 and 0.009808 | 0.02965 and 0.01327 and 0.0132 | 0.01988 and 0.005935 and 0.01208 | 0.01996 and 0.02873 and 0.02267 | 0.009728 and 0.0229 and 0.03931 | 0.02585 and 0.06278 and 0.01094 | 0.02982 and 0.02323 and 0.02961 | 0.03327 and 0.007263 and 0.02034 | 0.0343 and 0.0166 and 0.04409 | 0.1225 and 0.05897 and 0.08613 | 0.2002 and 0.2003 and 0.254 | 0.2477 and 0.2297 and 0.3237 | 0.2891 and 0.3472 and 0.3016 | 0.3418 and 0.3544 and 0.3825 | 0.285 and 0.273 and 0.328 | 0.2778 and 0.3903 and 0.3448 | 0.3624 and 0.278 and 0.3289 | 0.2714 and 0.2974 and 0.3445 | CO[C@H]1C[C@@H]2CC[C@@H](C)[C@@](O)(O2)C(=O)C(=O)N2CCCC[C@H]2C(=O)O[C@H]([C@H](C)C[C@@H]2CC[C@@H](O)[C@H](OC)C2)CC(=O)[C@H](C)/C=C(\C)[C@@H](O)CC[C@H](C)/C=C/C=C/C=C/1C [Compound 7] | PPI-inducing (binding enhancing) activity between FKBP12 and mTOR compared with rapamycin (1), in words: much less potent than 1; EC50: 320 nM
4 | 0.01161 and 0.0103 and 0.03088 | 0.00895 and 0.02271 and 0.02107 | 0.01544 and 0.008548 and 0.02969 | 0.009653 and 0.01526 and 0.05621 | 0.01804 and 0.005306 and 0.005698 | 0.0369 and 0.03402 and 0.3176 | 0.06499 and 0.06076 and 0.02459 | 0.2364 and 0.2753 and 0.5339 | 0.345 and 0.3003 and 0.3827 | 0.3632 and 0.2888 and 0.4741 | 0.3612 and 0.3367 and 0.3536 | 0.3566 and 0.4014 and 0.5261 | 0.3241 and 0.3575 and 0.3236 | 0.4221 and 0.4622 and 0.4598 | 0.3074 and 0.3503 and 0.4064 | 0.4223 and 0.3831 and 0.4233 | 0.3328 and 0.3828 and 0.4116 | 0.2834 and 0.3194 and 0.3771 | 0.3113 and 0.345 and 0.3681 | 0.2989 and 0.4553 and 0.5427 | CO[C@H]1C[C@@H]2CC[C@@H](C)[C@@](O)(O2)C(=O)C(=O)N2CCCC[C@H]2C(=O)O[C@H]([C@H](C)C[C@@H]2CC[C@@H](O)[C@H](OC)C2)CC(=O)[C@H](C)/C=C(\C)[C@@H](O)[C@@H](OC)C(=O)[C@H](C)C[C@H](C)/C=C/C=C/C=C/1C [Compound 1, rapamycin, reference compound] | 
5 | 0.01583 and 0.01285 and 0.01813 | 0.02463 and 0.01296 and 0.02679 | 0.01747 and 0.03336 and 0.009483 | 0.01101 and 0.009441 and 0.01241 | 0.01354 and 0.009078 and 0.03888 | 0.02172 and 0.01712 and 0.01571 | 0.01274 and 0.01148 and 0.02185 | 0.01853 and 0.03131 and 0.01125 | 0.04 and 0.01743 and 0.009054 | 0.01856 and 0.02257 and 0.02853 | 0.02191 and 0.01721 and 0.01479 | 0.01663 and 0.02497 and 0.01905 | 0.01986 and 0.02708 and 0.02914 | 0.02045 and 0.02304 and 0.03319 | 0.09025 and 0.08153 and 0.07652 | 0.2188 and 0.1724 and 0.1954 | 0.2549 and 0.2832 and 0.2819 | 0.2175 and 0.1877 and 0.2688 | 0.2553 and 0.272 and 0.2457 | 0.2721 and 0.2164 and 0.2636 | COC1CC2CCC(C)C(O)(O2)C(=O)C(=O)N2CCCCC2C(=O)OC(C(C)CC2CCC(O)C(OC)C2)CC(=O)C(C)C=C(C)C(O)CC(=O)C(C)C=C(C)C=CC=CC=C1C (stereo not drawn) [Compound 14] | PPI-inducing (binding enhancing) activity between FKBP12 and mTOR compared with rapamycin (1), in words: much less potent than 1; EC50: 2130 nM
